Values quoted from earlier work in article PMC3349014 (Journal of the American Chemical Society, 2012).

Settings: over 3 h

Substance | Rat plasma levels after IV injection
Ac-Py-Py-β-Py-Im-Py-γ-Py-Py-Py-β-Im-Py-β-Dp [compound 1666] | drop to low percent over 3 h
Ac-Im-Py-Py-γ-Im-Py-Py-β-Dp [compound 1035] | drop to low percent over 3 h
